What was measured:
mammalian cells = conditions: overexpression in mammalian cells; ref [19]; [20]; cited from earlier work
human PCNA = human PCNA (Homo sapiens, UniProt P12004); test: Competition-based fluorescence polarization assay with BODIPY-p21 peptide; format: binding; conditions: competition FP, abstract statement
[1] = tested on: PCNA-dependent DNA synthesis; test: Inhibition of PCNA-dependent DNA synthesis in HeLa cell extract; format: biochemical, human; conditions: PCNA titrated 0.05-2.5 μM (0.1-2.5 μM with 20 μM p21 peptide)
PCNA trimer = test: Gel filtration chromatography of PCNA/peptide complexes; format: binding, human; conditions: Superose 12, peptide : PCNA trimer 1:1; UV 280 nm

Sequence of human PCNA (P12004 whole entry): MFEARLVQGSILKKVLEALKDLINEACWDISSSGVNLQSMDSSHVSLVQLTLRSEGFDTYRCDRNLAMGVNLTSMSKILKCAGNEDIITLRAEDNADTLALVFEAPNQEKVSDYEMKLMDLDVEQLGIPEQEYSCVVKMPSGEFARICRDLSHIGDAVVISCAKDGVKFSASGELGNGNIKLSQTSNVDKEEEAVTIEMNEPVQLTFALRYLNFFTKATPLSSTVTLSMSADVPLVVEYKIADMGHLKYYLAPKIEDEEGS

| dissociation constant (in words) (human PCNA) | Substance | arrest of cell division (in words) (mammalian cells) | rescue of DNA synthesis by added PCNA (in words) [1] | binding of single or multiple PCNA trimers (in words) (PCNA trimer) |
| --- | --- | --- | --- | --- |
| – | 20 amino-acid peptide spanning the C-terminus of p21: amino acids 141-160 of the native p21 | able to arrest cell division | – | – |
| low nanomolar dissociation constant | KRRQTSMTDFYHSKRRLIFSGGSGGSGGSGGSGGSGGSKRRQTSMTDFYHSKRRLIFS [divalent p21 peptide] | – | reversed the inhibition | rules out the binding of multiple PCNA trimers |
| low nanomolar dissociation constant | KRRQTSMTDFYHSKRRLIFSGGSGGSGGSGGSGGSGGSKRRQTSMTDFYHSKRRLIFSGGSGGSGGSGGSGGSGGSKRRQTSMTDFYHSKRRLIFS [trivalent p21 peptide] | – | reversed the inhibition | rules out the binding of multiple PCNA trimers |
